Laboratory results published in US20020137929A1, “1 - (3-heterocyclylphenyl) isothiourea, -isourea, -guanidine and -amidine herbicidal agents” (Intellectual Property Department, BASF Aktiengesellschaft, priority 1998, published 2002).

Key:
CASOB (Sicklepod) = assay: Postemergence herbicidal evaluation; format: in vivo, Cassia obtusifolia; settings: for CASOB herbicidal rating: postemergence
Procedure, shortened: (§1)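 Two-week seedlings sprayed postemergence at 40 psi; formulation: 1:1 acetone/water, 0.5% TWEEN 20; application ≈0.0156–0.500 kg/ha. Greenhouse grow-out, then 0–9 visual scoring at 4–5 weeks.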

ZEAMX (Corn, Field) [1] = assay: Postemergence herbicidal evaluation; format: in vivo, Zea mays; settings: for ZEAMX herbicidal rating: postemergence
Procedure, shortened: as §1

ZEAMX (Corn, Field) [2] = assay: Preemergence herbicidal evaluation; format: in vivo, Zea mays; settings: rated 4-5 weeks after treatment
Procedure, shortened: (§2)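 Rating at 4–5 wk post-spray on a 0–9 visual scale vs control. Application: aqueous acetone, ~0.0156–0.500 kg/ha, to soil surface after seeding, preemergence.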

[3] = system: ECHORC (Watergrass (Calif.)); assay: Postemergence weed control under flooded paddy conditions; format: in vivo, Echinochloa oryzoides; settings: postemergence weeds, 3-4 weeks after treatment
Procedure, shortened: (§3)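 Weeds 3 to 5 cm tall and rice seedlings at the 1.5 to 2.5 leaf stage were flooded, with water held 1.5 to 3 cm above the soil. Compounds in 50/50 v/v aqueous/acetone went into the flood water at about 0.0313 to 0.500 kg/ha. Visual 0-9 ratings versus control were made 3 to 4 weeks later.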

CYPIR (Rice Flatsedge) = assay: Preemergence weed control under flooded paddy conditions; format: in vivo, Cyperus iria; settings: rated 3-4 weeks after treatment
Procedure, shortened: (§4)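 Flooded-pot preemergence screen with silt loam and seeds in the upper 0.5 cm. Dose about 0.0313 to 0.500 kg/ha, delivered into flood water; visual 0-9 score after 3 to 4 weeks.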

ORYSAT (Rice, Tebonnet) = assay: Preemergence herbicidal evaluation; format: in vivo, Oryza sativa, (L.) Tebonnet; settings: rated 4-5 weeks after treatment
Procedure, shortened: as §2

[4] = system: ECHORC (Watergrass (Calif.)); assay: Preemergence weed control under flooded paddy conditions; format: in vivo, Echinochloa oryzoides; settings: rated 3-4 weeks after treatment
Procedure, shortened: as §4

[5] = system: CHEAL (Lambsquarters, Common); assay: Preemergence herbicidal evaluation; format: in vivo, Chenopodium album; settings: rated 4-5 weeks after treatment
Procedure, shortened: as §2

CYPSE (Flatsedge) [6] = assay: Preemergence weed control under flooded paddy conditions; format: in vivo, Cyperus serotinus; settings: rated 3-4 weeks after treatment
Procedure, shortened: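 Greenhouse paddy assay. Acetone/water (50/50 v/v) solutions dosed into flood water, equivalent to about 0.0313 to 0.500 kg/ha active ingredient, over seeds planted 0.5 cm deep in silt loam. Score: 0-9 visual, based on stand, vigor, malformation, size and chlorosis, 3 to 4 weeks after treatment.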

CYPSE (Flatsedge) [7] = assay: Postemergence weed control under flooded paddy conditions; format: in vivo, Cyperus serotinus; settings: postemergence weeds, 3-4 weeks after treatment
Procedure, shortened: as §3

AMBEL (Ragweed, Common) = assay: Preemergence herbicidal evaluation; format: in vivo, Ambrosia artemisifolia; settings: rated 4-5 weeks after treatment
Procedure, shortened: as §2

[8] = system: IPOHE (Morningglory, Ivyleaf); assay: Preemergence herbicidal evaluation; format: in vivo, Ipomoea hederacea; settings: rated 4-5 weeks after treatment
Procedure, shortened: as §2

GALAP (Galium) = assay: Postemergence herbicidal evaluation; format: in vivo, Galium aparine; settings: for GALAP herbicidal rating: postemergence
Procedure, shortened: as §1

[9] = system: TRZAWR (Wheat, Winter, cv Riband); assay: Preemergence herbicidal evaluation; format: in vivo, Triticum aestivum; settings: rated 4-5 weeks after treatment
Procedure, shortened: as §2

Cn1c(C(F)(F)F)cc(=O)n(-c2cc(N=C3NC(=O)CS3)c(Cl)cc2F)c1=O [Compound 39, 3-{4-Chloro-2-fluoro-5-[(4-oxo-2-thiazolidinylidene)amino]phenyl}-1-methyl-6-(trifluoromethyl)-2,4(1H,3H)-pyrimidinedione]
Postemergence herbicidal rating CASOB (CASOB (Sicklepod); Rate 0.0158 kg/ha): 0.0 | Postemergence herbicidal rating CASOB (CASOB (Sicklepod); Rate 0.0315 kg/ha): 0.0 | Postemergence herbicidal rating CASOB (CASOB (Sicklepod); Rate 0.0630 kg/ha): 0.0 | Postemergence herbicidal rating ZEAMX (ZEAMX (Corn, Field) [1]; Rate 0.0158 kg/ha): 3.0 | Postemergence herbicidal rating ZEAMX (ZEAMX (Corn, Field) [1]; Rate 0.0315 kg/ha): 3.0 | Postemergence herbicidal rating ZEAMX (ZEAMX (Corn, Field) [1]; Rate 0.0630 kg/ha): 3.0 | Preemergence herbicidal rating ZEAMX (ZEAMX (Corn, Field) [2]; rate 0.0156 kg/ha): 0.0 | Preemergence herbicidal rating ZEAMX (ZEAMX (Corn, Field) [2]; rate 0.0313 kg/ha): 0.0 | Preemergence herbicidal rating ZEAMX (ZEAMX (Corn, Field) [2]; rate 0.0625 kg/ha): 0.0 | Preemergence herbicidal rating ZEAMX (ZEAMX (Corn, Field) [2]; rate 0.1250 kg/ha): 2.0 | Preemergence herbicidal rating ZEAMX (ZEAMX (Corn, Field) [2]; rate 0.2500 kg/ha): 5.0 | Herbicidal rating ECHORC ([3]; rate 0.0313 kg/ha): 0.0 | Herbicidal rating ECHORC ([3]; rate 0.0625 kg/ha): 0.0 | Herbicidal rating ECHORC ([3]; rate 0.1250 kg/ha): 2.0 | Herbicidal rating ECHORC ([3]; rate 0.2500 kg/ha): 3.0 | Herbicidal rating CYPIR (CYPIR (Rice Flatsedge); 0.0313 kg/ha): 0.0 | Herbicidal rating CYPIR (CYPIR (Rice Flatsedge); 0.0625 kg/ha): 0.0 | Herbicidal rating CYPIR (CYPIR (Rice Flatsedge); 0.1250 kg/ha): 0.0 | Herbicidal rating CYPIR (CYPIR (Rice Flatsedge); 0.2500 kg/ha): 0.0 | Preemergence herbicidal rating ORYSAT (ORYSAT (Rice, Tebonnet); rate 0.0156 kg/ha): 0.0 | Preemergence herbicidal rating ORYSAT (ORYSAT (Rice, Tebonnet); rate 0.0313 kg/ha): 0.0 | Preemergence herbicidal rating ORYSAT (ORYSAT (Rice, Tebonnet); rate 0.0625 kg/ha): 0.0 | Preemergence herbicidal rating ORYSAT (ORYSAT (Rice, Tebonnet); rate 0.1250 kg/ha): 1.0 | Preemergence herbicidal rating ORYSAT (ORYSAT (Rice, Tebonnet); rate 0.2500 kg/ha): 2.0 | Herbicidal rating ECHORC ([4]; 0.0313 kg/ha): 0.0 | Herbicidal rating ECHORC ([4]; 0.0625 kg/ha): 0.0 | Herbicidal rating ECHORC ([4]; 0.1250 kg/ha): 2.0 | Herbicidal rating ECHORC ([4]; 0.2500 kg/ha): 3.0 | Preemergence herbicidal rating CHEAL ([5]; rate 0.0156 kg/ha): 1.0 | Preemergence herbicidal rating CHEAL ([5]; rate 0.0313 kg/ha): 0.0 | Preemergence herbicidal rating CHEAL ([5]; rate 0.0625 kg/ha): 7.0 | Preemergence herbicidal rating CHEAL ([5]; rate 0.1250 kg/ha): 7.0 | Preemergence herbicidal rating CHEAL ([5]; rate 0.2500 kg/ha): 9.0 | Herbicidal rating CYPSE (CYPSE (Flatsedge) [6]; 0.0313 kg/ha): 0.0 | Herbicidal rating CYPSE (CYPSE (Flatsedge) [6]; 0.0625 kg/ha): 0.0 | Herbicidal rating CYPSE (CYPSE (Flatsedge) [6]; 0.1250 kg/ha): 0.0 | Herbicidal rating CYPSE (CYPSE (Flatsedge) [6]; 0.2500 kg/ha): 0.0 | Herbicidal rating CYPSE (CYPSE (Flatsedge) [7]; rate 0.0313 kg/ha): 0.0 | Herbicidal rating CYPSE (CYPSE (Flatsedge) [7]; rate 0.0625 kg/ha): 0.0 | Herbicidal rating CYPSE (CYPSE (Flatsedge) [7]; rate 0.1250 kg/ha): 0.0 | Herbicidal rating CYPSE (CYPSE (Flatsedge) [7]; rate 0.2500 kg/ha): 0.0 | Preemergence herbicidal rating AMBEL (AMBEL (Ragweed, Common); rate 0.0156 kg/ha): 0.0 | Preemergence herbicidal rating AMBEL (AMBEL (Ragweed, Common); rate 0.0313 kg/ha): 0.0 | Preemergence herbicidal rating AMBEL (AMBEL (Ragweed, Common); rate 0.0625 kg/ha): 0.0 | Preemergence herbicidal rating AMBEL (AMBEL (Ragweed, Common); rate 0.1250 kg/ha): 6.0 | Preemergence herbicidal rating AMBEL (AMBEL (Ragweed, Common); rate 0.2500 kg/ha): 7.0 | Preemergence herbicidal rating IPOHE ([8]; rate 0.0156 kg/ha): 0.0 | Preemergence herbicidal rating IPOHE ([8]; rate 0.0313 kg/ha): 0.0 | Preemergence herbicidal rating IPOHE ([8]; rate 0.0625 kg/ha): 1.0 | Preemergence herbicidal rating IPOHE ([8]; rate 0.1250 kg/ha): 1.0 | Preemergence herbicidal rating IPOHE ([8]; rate 0.2500 kg/ha): 9.0 | Postemergence herbicidal rating GALAP (GALAP (Galium); Rate 0.0158 kg/ha): 0.0 | Postemergence herbicidal rating GALAP (GALAP (Galium); Rate 0.0315 kg/ha): 0.0 | Postemergence herbicidal rating GALAP (GALAP (Galium); Rate 0.0630 kg/ha): 0.0 | Preemergence herbicidal rating TRZAWR ([9]; rate 0.0156 kg/ha): 0.0 | Preemergence herbicidal rating TRZAWR ([9]; rate 0.0313 kg/ha): 0.0 | Preemergence herbicidal rating TRZAWR ([9]; rate 0.0625 kg/ha): 0.0 | Preemergence herbicidal rating TRZAWR ([9]; rate 0.1250 kg/ha): 1.0 | Preemergence herbicidal rating TRZAWR ([9]; rate 0.2500 kg/ha): 2.0

CCOC(=O)CN1C(=O)C(=Cc2ccccc2)SC1=Nc1cc(-n2c(=O)cc(C(F)(F)F)n(C)c2=O)c(F)cc1Cl [Compound 19, Ethyl 5-benzylidene-2-{{2-chloro-5-[3,6-dihydro-3-methyl-2,6-dioxo-4-(trifluoromethyl)-1(2H)-pyrimidinyl]-4-fluorophenyl}imino}-4-oxo-3-thiazolidineacetate]
CASOB herbicidal rating (CASOB (Sicklepod); rate 0.0158 kg/ha): 0.0 | CASOB herbicidal rating (CASOB (Sicklepod); rate 0.0315 kg/ha): 1.0 | CASOB herbicidal rating (CASOB (Sicklepod); rate 0.0630 kg/ha): 1.0 | ZEAMX herbicidal rating (ZEAMX (Corn, Field) [1]; rate 0.0158 kg/ha): 4.0 | ZEAMX herbicidal rating (ZEAMX (Corn, Field) [1]; rate 0.0315 kg/ha): 4.5 | ZEAMX herbicidal rating (ZEAMX (Corn, Field) [1]; rate 0.0630 kg/ha): 5.0 | ZEAMX preemergence herbicidal rating (ZEAMX (Corn, Field) [2]; rate 0.1250 kg/ha): 0.0 | ZEAMX preemergence herbicidal rating (ZEAMX (Corn, Field) [2]; rate 0.2500 kg/ha): 0.0 | Herbicidal rating ECHORC ([3]; rate 0.1160 kg/ha): 7.0 | Herbicidal rating ECHORC ([3]; rate 0.2310 kg/ha): 7.0 | Herbicidal rating ECHORC ([3]; rate 0.4630 kg/ha): 9.0 | Herbicidal rating CYPIR (CYPIR (Rice Flatsedge); 0.1160 kg/ha): 0.0 | Herbicidal rating CYPIR (CYPIR (Rice Flatsedge); 0.2310 kg/ha): 0.0 | Herbicidal rating CYPIR (CYPIR (Rice Flatsedge); 0.4630 kg/ha): 0.0 | ORYSAT preemergence herbicidal rating (ORYSAT (Rice, Tebonnet); rate 0.1250 kg/ha): 0.0 | ORYSAT preemergence herbicidal rating (ORYSAT (Rice, Tebonnet); rate 0.2500 kg/ha): 0.0 | Herbicidal rating ECHORC ([4]; 0.1160 kg/ha): 7.0 | Herbicidal rating ECHORC ([4]; 0.2310 kg/ha): 7.0 | Herbicidal rating ECHORC ([4]; 0.4630 kg/ha): 9.0 | CHEAL preemergence herbicidal rating ([5]; rate 0.1250 kg/ha): 9.0 | CHEAL preemergence herbicidal rating ([5]; rate 0.2500 kg/ha): 9.0 | Herbicidal rating CYPSE (CYPSE (Flatsedge) [6]; 0.1160 kg/ha): 4.0 | Herbicidal rating CYPSE (CYPSE (Flatsedge) [6]; 0.2310 kg/ha): 4.0 | Herbicidal rating CYPSE (CYPSE (Flatsedge) [6]; 0.4630 kg/ha): 4.0 | Herbicidal rating CYPSE (CYPSE (Flatsedge) [7]; rate 0.1160 kg/ha): 4.0 | Herbicidal rating CYPSE (CYPSE (Flatsedge) [7]; rate 0.2310 kg/ha): 4.0 | Herbicidal rating CYPSE (CYPSE (Flatsedge) [7]; rate 0.4630 kg/ha): 4.0 | AMBEL preemergence herbicidal rating (AMBEL (Ragweed, Common); rate 0.1250 kg/ha): 0.0 | AMBEL preemergence herbicidal rating (AMBEL (Ragweed, Common); rate 0.2500 kg/ha): 1.0 | IPOHE preemergence herbicidal rating ([8]; rate 0.1250 kg/ha): 0.0 | IPOHE preemergence herbicidal rating ([8]; rate 0.2500 kg/ha): 0.0 | GALAP herbicidal rating (GALAP (Galium); rate 0.0158 kg/ha): 2.0 | GALAP herbicidal rating (GALAP (Galium); rate 0.0315 kg/ha): 3.0 | GALAP herbicidal rating (GALAP (Galium); rate 0.0630 kg/ha): 3.0 | TRZAWR preemergence herbicidal rating ([9]; rate 0.1250 kg/ha): 0.0 | TRZAWR preemergence herbicidal rating ([9]; rate 0.2500 kg/ha): 0.0
